Assay results from PubChem BioAssay AID256 (DTP/NCI, 2004).
Several values for one entry are separate records, joined by “and”; a condition that tells them apart may be missing. Identical values can stand only once. Toxic doses and inconclusive results are not listed. The calls were made as follows: active = survival T/C of 150% or more; inactive = T/C below 125% in these data.

System: CD2F1 mice, L1210 leukemia ip, survival T/C
Test: NCI In Vivo Anticancer Drug Screen. Data for tumor model L1210 Leukemia (intraperitoneal) in CD2F1 (CDF1) mice
Conditions: higher = longer survival
In short: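 Mice carrying a transplanted tumor received test compound or vehicle alone. The value is the measurement in the treated group divided by that in the vehicle-treated control group.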

[1] = endpoint: mean survival time, dose: 50.0 mg/kg/injection, schedule: Q01DX009 (ip), vehicle: Klucel (hydroxypropylcellulose) (HPC)
[2] = endpoint: mean survival time, dose: 100.0 mg/kg/injection, schedule: Q04DX002 (ip), vehicle: saline with Tween-80
[3] = endpoint: mean survival time, dose: 25.0 mg/kg/injection, schedule: Q01DX009 (ip), vehicle: saline
[4] = endpoint: mean survival time, dose: 50.0 mg/kg/injection, schedule: Q01DX009 (ip), vehicle: saline
[5] = endpoint: mean survival time, dose: 100.0 mg/kg/injection, schedule: Q01DX009 (ip), vehicle: saline
[6] = endpoint: mean survival time, dose: 100.0 mg/kg/injection, schedule: Q04DX003 (ip), vehicle: saline with Tween-80
[7] = endpoint: mean survival time, dose: 100.0 mg/kg/injection, schedule: Q01DX001 (ip), vehicle: saline with Tween-80
[8] = endpoint: mean survival time, dose: 200.0 mg/kg/injection, schedule: Q01DX001 (ip), vehicle: saline with Tween-80
[9] = endpoint: mean survival time, dose: 400.0 mg/kg/injection, schedule: Q01DX001 (ip), vehicle: saline with Tween-80
[10] = endpoint: mean survival time, dose: 100.0 mg/kg/injection, schedule: Q01DX009 (ip), vehicle: Klucel (hydroxypropylcellulose) (HPC)
[11] = endpoint: mean survival time, dose: 200.0 mg/kg/injection, schedule: Q01DX009 (ip), vehicle: Klucel (hydroxypropylcellulose) (HPC)
[12] = endpoint: mean survival time, dose: 50.0 mg/kg/injection, schedule: Q01DX009 (ip), vehicle: saline with Tween-80
[13] = endpoint: mean survival time, dose: 100.0 mg/kg/injection, schedule: Q01DX009 (ip), vehicle: saline with Tween-80
[14] = endpoint: mean survival time, dose: 200.0 mg/kg/injection, schedule: Q04DX003 (ip), vehicle: saline with Tween-80
[15] = endpoint: mean survival time, dose: 400.0 mg/kg/injection, schedule: Q04DX003 (ip), vehicle: saline with Tween-80
[16] = endpoint: mean survival time, dose: 100.0 mg/kg/injection, schedule: Q01DX001 (ip), vehicle: saline
[17] = endpoint: mean survival time, dose: 200.0 mg/kg/injection, schedule: Q01DX001 (ip), vehicle: saline
[18] = endpoint: mean survival time, dose: 400.0 mg/kg/injection, schedule: Q01DX001 (ip), vehicle: saline

Measured: T/C

O=C(NNc1ccccc1)c1ccccc1
inactive: endpoint: mean survival time, dose: 12.5 mg/kg/injection, schedule: Q01DX009 (ip), vehicle: Klucel (hydroxypropylcellulose) (HPC) 110 % of control | endpoint: mean survival time, dose: 25.0 mg/kg/injection, schedule: Q01DX009 (ip), vehicle: Klucel (hydroxypropylcellulose) (HPC) 105 % of control | [1] 106 % of control | endpoint: mean survival time, dose: 75.0 mg/kg/injection, schedule: Q01DX009 (ip), vehicle: saline 96 % of control | [2] 110 % of control | endpoint: mean survival time, dose: 150.0 mg/kg/injection, schedule: Q01DX009 (ip), vehicle: saline 97 % of control | endpoint: mean survival time, dose: 200.0 mg/kg/injection, schedule: Q04DX002 (ip), vehicle: saline with Tween-80 100 % of control | endpoint: mean survival time, dose: 300.0 mg/kg/injection, schedule: Q01DX009 (ip), vehicle: saline 98 % of control | endpoint: mean survival time, dose: 400.0 mg/kg/injection, schedule: Q04DX002 (ip), vehicle: saline with Tween-80 110 % of control

N=C(N)SC1c2ccccc2-c2ccc(N)cc21 (centres undefined)
inactive: [3] 107 % of control | [4] 102 % of control | [5] 109 % of control | [6] 103 % of control

Cc1ccc(CCOS(=O)(=O)c2ccc(C)cc2)cc1
inactive: [7] 97 % of control | [8] 95 % of control | [9] 95 % of control

COC(=O)c1cc(Cl)ccc1OCC(=O)Nc1ccccc1
inactive: [7] 90 % of control | [8] 94 % of control | [9] 94 % of control

O=C1CCCCC1CNCc1ccccc1 (centres undefined)
inactive: endpoint: mean survival time, dose: 75.0 mg/kg/injection, schedule: Q01DX001 (ip), vehicle: saline 102 % of control | endpoint: mean survival time, dose: 150.0 mg/kg/injection, schedule: Q01DX001 (ip), vehicle: saline 93 % of control

COc1cc([NH-])c([NH-])cc1OC.[Cl][Pt+2][Cl]
inactive: endpoint: mean survival time, dose: 1.25 mg/kg/injection, schedule: Q01DX009 (ip), vehicle: saline with Tween-80 103 % of control | endpoint: mean survival time, dose: 2.5 mg/kg/injection, schedule: Q01DX009 (ip), vehicle: saline with Tween-80 107 % of control | endpoint: mean survival time, dose: 5.0 mg/kg/injection, schedule: Q01DX009 (ip), vehicle: saline with Tween-80 105 % of control | endpoint: mean survival time, dose: 10.0 mg/kg/injection, schedule: Q01DX009 (ip), vehicle: saline with Tween-80 106 % of control | endpoint: mean survival time, dose: 20.0 mg/kg/injection, schedule: Q01DX009 (ip), vehicle: saline with Tween-80 104 % of control and 111 % of control | endpoint: mean survival time, dose: 40.0 mg/kg/injection, schedule: Q01DX009 (ip), vehicle: saline with Tween-80 107 % of control | endpoint: mean survival time, dose: 80.0 mg/kg/injection, schedule: Q01DX009 (ip), vehicle: saline with Tween-80 107 % of control | endpoint: mean survival time, dose: 160.0 mg/kg/injection, schedule: Q01DX009 (ip), vehicle: saline with Tween-80 92 % of control

CCCCC(CC)COCC1CO1 (centres undefined)
inactive: [1] 102 % of control | [10] 96 % of control | [11] 100 % of control

CC(=O)Nc1nc(C)c(CCCOc2ccc([N+](=O)[O-])cc2)c(=O)[nH]1
inactive: [1] 97 % of control | [10] 90 % of control | [11] 90 % of control

OC1COC(C(/C=N/Nc2ccccc2)=N/Nc2ccccc2)C1O (centres undefined)
inactive: endpoint: median survival time, dose: 25.0 mg/kg/injection, schedule: Q01DX005 (ip), vehicle: distilled water + Tween-80 97 % of control | endpoint: median survival time, dose: 50.0 mg/kg/injection, schedule: Q01DX005 (ip), vehicle: distilled water + Tween-80 94 % of control | endpoint: median survival time, dose: 100.0 mg/kg/injection, schedule: Q01DX005 (ip), vehicle: distilled water + Tween-80 87 % of control | endpoint: median survival time, dose: 200.0 mg/kg/injection, schedule: Q01DX005 (ip), vehicle: distilled water + Tween-80 92 % of control | endpoint: median survival time, dose: 400.0 mg/kg/injection, schedule: Q01DX005 (ip), vehicle: distilled water + Tween-80 92 % of control

Br/C=C(\Br)C[N+]12CN3CN(CN(C3)C1)C2
inactive: endpoint: mean survival time, dose: 25.0 mg/kg/injection, schedule: Q01DX009 (ip), vehicle: saline with Tween-80 107 % of control | [12] 105 % of control | [13] 104 % of control

CCOC(C[Se][Se]CC(OCC)OCC)OCC
inactive: endpoint: mean survival time, dose: 3.13 mg/kg/injection, schedule: Q01DX009 (ip), vehicle: saline 100 % of control | endpoint: mean survival time, dose: 6.25 mg/kg/injection, schedule: Q01DX009 (ip), vehicle: saline 108 % of control | endpoint: mean survival time, dose: 6.25 mg/kg/injection, schedule: Q04DX003 (ip), vehicle: saline with Tween-80 95 % of control | endpoint: mean survival time, dose: 12.5 mg/kg/injection, schedule: Q04DX003 (ip), vehicle: saline with Tween-80 102 % of control

O=S(CC(O)(c1ccccc1)c1ccccc1)c1ccccc1 (centres undefined)
inactive: [6] 93 % of control | [14] 97 % of control | [15] 97 % of control

COc1cc2cc3cc4cc(OC)c(OC)cc4c(C)[n+]3cc2cc1OC (tested in a mixture with another compound)
inactive: endpoint: mean survival time, dose: 12.5 mg/kg/injection, schedule: Q01DX009 (ip), vehicle: suspension in saline 109 % of control | endpoint: mean survival time, dose: 25.0 mg/kg/injection, schedule: Q01DX009 (ip), vehicle: suspension in saline 110 % of control | endpoint: mean survival time, dose: 50.0 mg/kg/injection, schedule: Q01DX009 (ip), vehicle: suspension in saline 114 % of control | endpoint: mean survival time, dose: 100.0 mg/kg/injection, schedule: Q01DX009 (ip), vehicle: suspension in saline 107 % of control | endpoint: mean survival time, dose: 200.0 mg/kg/injection, schedule: Q01DX009 (ip), vehicle: suspension in saline 110 % of control

CCCCCCCCC[n+]1ccc(C#N)cc1
inactive: endpoint: mean survival time, dose: 9.38 mg/kg/injection, schedule: Q01DX001 (ip), vehicle: other 103 % of control | endpoint: mean survival time, dose: 18.75 mg/kg/injection, schedule: Q01DX001 (ip), vehicle: other 101 % of control | endpoint: mean survival time, dose: 37.5 mg/kg/injection, schedule: Q01DX001 (ip), vehicle: other 103 % of control

O=S(=O)(O)c1ccc(-c2c3nc(c(-c4ccc(S(=O)(=O)O)cc4)c4ccc([nH]4)c(-c4ccc(S(=O)(=O)O)cc4)c4nc(c(-c5ccc(S(=O)(=O)O)cc5)c5ccc2[nH]5)C=C4)C=C3)cc1
inactive: [16] 108 % of control | [17] 108 % of control | [18] 113 % of control

CC(=O)NC(Cc1cc(I)c(OC(C)=O)c(I)c1)C(=O)O (centres undefined)
inactive: [12] 93 % of control | endpoint: mean survival time, dose: 50.0 mg/kg/injection, schedule: Q04DX003 (ip), vehicle: saline with Tween-80 101 % of control | [13] 93 % of control | [6] 95 % of control | endpoint: mean survival time, dose: 200.0 mg/kg/injection, schedule: Q01DX009 (ip), vehicle: saline with Tween-80 93 % of control | [14] 97 % of control

C=CC(=O)c1ccccc1
inactive: [2] 111 % of control

COc1cc(N)nc(OC)n1
inactive: [6] 94 % of control | [14] 100 % of control | [15] 87 % of control

CCOC(=O)c1c(O)csc1N
inactive: [6] 110 % of control | [14] 98 % of control | [15] 98 % of control

CN(Cc1ccccc1)C1CCC(C(=O)O)CC1 (centres undefined)
inactive: [5] 107 % of control | endpoint: mean survival time, dose: 200.0 mg/kg/injection, schedule: Q01DX009 (ip), vehicle: saline 107 % of control | endpoint: mean survival time, dose: 400.0 mg/kg/injection, schedule: Q01DX009 (ip), vehicle: saline 100 % of control

CN(C)S(=O)(=O)Oc1ccccc1N
inactive: [6] 99 % of control | [14] 87 % of control | [15] 94 % of control

CS(=O)(=O)OCCCN(CCCOS(C)(=O)=O)c1ccc(C=Nc2ccc(-c3csc(COc4ccc(Cl)cc4)n3)cc2)cc1
inactive: [7] 91 % of control | [8] 91 % of control | [9] 95 % of control

O=Cc1cccc(OCc2ccc([N+](=O)[O-])cc2)c1
inactive: [1] 105 % of control | [10] 108 % of control | [11] 97 % of control

CC(C)NC(=S)S
inactive: [3] 100 % of control | endpoint: mean survival time, dose: 25.0 mg/kg/injection, schedule: Q04DX003 (ip), vehicle: saline 100 % of control | [4] 94 % of control | endpoint: mean survival time, dose: 50.0 mg/kg/injection, schedule: Q04DX003 (ip), vehicle: saline 105 % of control | [5] 109 % of control | endpoint: mean survival time, dose: 100.0 mg/kg/injection, schedule: Q04DX003 (ip), vehicle: saline 103 % of control

S=[As](c1ccccc1)(c1ccccc1)c1ccccc1
inactive: [16] 103 % of control | [17] 100 % of control | [18] 91 % of control

Nc1nc(Cl)nc2c1ncn2C1OC(CO)C(O)C1O (centres undefined)
inactive: endpoint: mean survival time, dose: 6.25 mg/kg/injection, schedule: Q04DX002 (ip), vehicle: saline 94 % of control | endpoint: mean survival time, dose: 12.5 mg/kg/injection, schedule: Q04DX002 (ip), vehicle: saline 109 % of control | endpoint: mean survival time, dose: 25.0 mg/kg/injection, schedule: Q04DX002 (ip), vehicle: saline 105 % of control | [5] 121 % of control
